{
  "source": "patent US5409692A",
  "about": "“Glucosyltransferase inhibitors, as well as dental caries prevention methods and anticarious foods using the same” (priority 1990, dated 1995)",
  "key": {"glucosyltransferase [1]": {"test_system": "glucosyltransferase", "experiment": "Glucosyltransferase inhibition activity (insoluble glucan, absorbance at 550 nm)", "format": "biochemical, S. mutans MT8148", "settings": "0.15 ml of 2,000 ppm sample solution in 3 ml total volume; pH 6.0, 37° C., 3 hours; control water", "description": "As an enzyme solution, was used an extract which was obtained by culturing S. mutans MT8148 strain on Todd-Hewitt medium and then extracting hyphae with 8M urea in accordance with the method proposed by Hamada et al. [S. Hamada et al., J. Gen. Microbiol., 35, 335- 344 (1999 )].\nA reaction system was prepared by adding 0.15 ml of an aqueous solution of a sample, said solution having been prepared to contain the sample at the concentration of 2,000 ppm, the enzyme solution prepared from the S. mutans strain and water to 0.6 ml of 500 mM sodium phosphate buffer which had pH 6.0 and contained 5% of sucrose, 0.5% of dextran T10 and 0.5% of sodium azide. The water was added in an amount to give a total volume of 3 ml. They were reacted in a glass test tube. In the above measurement, the amount of the enzyme was set such that the absorbance at 550 nm became about 1.0 when reacted at 37° C. for 3 hours.\nResultant insoluble glucan was subjected to ultrasonic disintegration and the; absorbance (A) at 550 nm was measured. Using as control (B) the absorbance obtained from the use of water in place of the sample solution, the inhibition rate (%) was determined in accordance with the following calculation formula: [formula] (Measurement results )\nThe glucosyltransferase inhibition activities of the extracts of the various fermented tea leaves, said extracts having been obtained in Examples 1, 2 and 3, and of caffeine and catechins, which are representative components of tea leaves, were measured using the above reaction system."}, "[2]": {"experiment": "Solubility in distilled water", "format": "physicochemical", "settings": "for solubility: distilled water, water", "source_text": "Sugar: Refined sugar (prime grade)\nPalatinose: Crystalline palatinose"}, "glucosyltransferase [3]": {"test_system": "glucosyltransferase", "experiment": "Anti-glucan formation test", "format": "biochemical, S. mutans MT8148", "settings": "0.3 ml of 10% sample solution in 3 ml; pH 6.0, 37° C., 3 hours; relative to sugar", "description": "To a mixture consisting of 0.3 ml of a 10% sample solution, 0.3 ml of 1M sodium phosphate buffer-which had pH 6.0 and contained 1.0% of dextran T10 and 1.0% of sodium azide--and a glucosyltransferase enzyme solution, water was added in an amount to give a total volume of 3 ml so that a reaction system was prepared. They were reacted in a glass test tube.\nInsoluble glucan thus formed was subjected to ultrasonic disintegration, and the absorbance (A) at 550 nm was measured.\nAs the glucosyltransferase enzyme solution, was used an extract which was obtained by culturing S. mutans MT8148 strain on Todd-Hewitt medium and then extracting hyphae with 8M urea in accordance with the method proposed by Hamada et al. [S. Hamada et al., J. Gen. Microbiol., 135, 335-344 (1989)]."}, "S. mutans MT8148 strain": {"test_system": "S. mutans MT8148 strain", "experiment": "Anti-plaque test (in vitro plaque formation)", "format": "cell-based", "settings": "sample 5% in Dulbecco's modified Eagle's medium, 37° C., 1 day, anaerobic; Average ± S.D.; anticarious sugar of Example 10", "description": "The test was carried out in the following manner. Culture media were prepared by adding the test samples at the concentration of 5% to Dulbecco's modified Eagle's medium, respectively. 6-ml Portions of the media were added to glass test tubes, respectively, to which S. mutans MT8148 strain was planted. After the cells were cultured at 37° C. for 1 day under anaerobic conditions, the amounts of plaque adhered on the walls of the respective test tubes were weighed."}},
  "data": [
    {"smiles": "Oc1cc(O)c2c(c1)OC(c1ccc(O)c(O)c1)C(O)C2", "note": "(stereo not shown) [Catechin]", "values": [
      {"measurement": "Inhibition rate, %", "setting": "glucosyltransferase [1]", "value": 13, "unit": "%"}
    ]},
    {"smiles": "O=C(O[C@@H]1Cc2c(O)cc(O)cc2O[C@@H]1c1ccc(O)c(O)c1)c1cc(O)c(O)c(O)c1", "note": "[Epicatechin gallate]", "values": [
      {"measurement": "Inhibition rate, %", "setting": "glucosyltransferase [1]", "value": 19, "unit": "%"}
    ]},
    {"smiles": "Oc1cc(O)c2c(c1)O[C@H](c1ccc(O)c(O)c1)[C@H](O)C2", "note": "[Epicatechin]", "values": [
      {"measurement": "Inhibition rate, %", "setting": "glucosyltransferase [1]", "value": 14, "unit": "%"}
    ]},
    {"smiles": "Oc1cc(O)c2c(c1)O[C@H](c1cc(O)c(O)c(O)c1)[C@H](O)C2", "note": "[Epigallocatechin]", "values": [
      {"measurement": "Inhibition rate, %", "setting": "glucosyltransferase [1]", "value": 11, "unit": "%"}
    ]},
    {"smiles": "Oc1cc(O)c2c(c1)O[C@H](c1cc(O)c(O)c(O)c1)[C@@H](O)C2", "note": "[Gallocatechin]", "values": [
      {"measurement": "Inhibition rate, %", "setting": "glucosyltransferase [1]", "value": 15, "unit": "%"}
    ]},
    {"smiles": "OC[C@H]1O[C@H](OC[C@H]2OC(O)(CO)[C@@H](O)[C@@H]2O)[C@H](O)[C@@H](O)[C@@H]1O", "note": "(stereo partly shown) [Palatinose, palatinose]", "values": [
      {"measurement": "Solubility (in words)", "setting": "[2]", "value": "low solubility especially at low temperatures"},
      {"measurement": "solubility", "setting": "[2]; 10° C.", "value": 210, "unit": "mg/mL"},
      {"measurement": "solubility", "setting": "[2]; 30° C.", "value": 320, "unit": "mg/mL"},
      {"measurement": "solubility", "setting": "[2]; 50° C.", "value": 440, "unit": "mg/mL"},
      {"measurement": "solubility", "setting": "[2]; 70° C.", "value": 580, "unit": "mg/mL"},
      {"measurement": "Relative amount of formed glucan, %", "setting": "glucosyltransferase [3]", "value": 2, "unit": "%"},
      {"measurement": "Amount of plaque formed", "setting": "S. mutans MT8148 strain", "value": "2.01 ± 0.22", "unit": "mg"}
    ]},
    {"smiles": "OC[C@H]1O[C@@](CO)(O[C@H]2O[C@H](CO)[C@@H](O)[C@H](O)[C@H]2O)[C@@H](O)[C@@H]1O", "note": "[Sugar]", "values": [
      {"measurement": "solubility", "setting": "[2]; 10° C.", "value": 630, "unit": "mg/mL"},
      {"measurement": "solubility", "setting": "[2]; 30° C.", "value": 680, "unit": "mg/mL"},
      {"measurement": "solubility", "setting": "[2]; 50° C.", "value": 720, "unit": "mg/mL"},
      {"measurement": "solubility", "setting": "[2]; 70° C.", "value": 740, "unit": "mg/mL"}
    ]}
  ]
}
